{
  "source": "paper PMC8000724",
  "about": "“Trans-Epithelial Transport, Metabolism, and Biological Activity Assessment of the Multi-Target Lupin Peptide [sequence] (P5) and Its Metabolite [sequence] (P5-Met)” (Nutrients, 2021)",
  "test_system": "secreted mature PCSK9",
  "assay": "Quantification of PCSK9 secreted by HepG2 cells through ELISA",
  "format": "cell-based, human",
  "conditions": "HepG2 supernatants, 50 µM, mean ± SD",
  "protocol": "The supernatants collected from treated HepG2 cells (50.0 μM of P5 and/or P5-met) were centrifuged at 600 × g for 10 min at 4 °C and ELISA assay performed using protocol already optimized. They were recovered and diluted to the ratio 1:10 with DMEM in a new ice-cold tube. PCSK9 was quantified by ELISA (R&D System, Minneapolis, MN, USA). Briefly, the experiments were carried out at 37 °C, following the manufacturer’s instructions. Before starting the assay, human PCSK9 standard curve (20.0, 10.0, 5.0, 2.5, 1.25, and 0.625 ng/mL) was prepared by serial dilutions from a 40 ng/mL stock. 100 µL of the Assay Diluent RD1-9 (provided into the kit) were placed in each well, before adding the standards and the samples (50 µL) and incubating the ELISA plate for 2 h at RT. Subsequently, wells were washed 4 times with the wash buffer, and 200 µL of human PCSK9-conjugate (HRP-labelled anti-PCSK9) was added to each well for 2 h at RT. Following aspiration, wells was washed 4 times with the kit wash buffer. After the last wash, 200 µL of substrate solution were added to the wells and allowed to incubate for 30 min at RT. The reaction was stopped with 50 µL of the stop solution (2 M sulfuric acid) and the absorbance at 450 nm was measured using Synergy H1 microplate (Winooski, VT, USA).",
  "data": [
    {"substance": "H-LPKHSDAD-OH [Peptide P5-met]", "values": [
      {"measurement": "Decrease of the secretion of mature PCSK9", "result": "22.2 ± 4.9", "unit": "%"}
    ]}
  ]
}
